Measured values reported in patent US8486968B2, “Compounds” (Boehringer Ingelheim International GmbH, priority 2010, dated 2013).

How the values were obtained:
[1] = molecular target: T1, mPGES-1 (Homo sapiens, UniProt O14684); assay: A549 cell-based assay (PGE2 formation, IL-1β stimulated, 50% human serum); set-up: host or cells: A549 cells
T1 sequence (O14684 1-152): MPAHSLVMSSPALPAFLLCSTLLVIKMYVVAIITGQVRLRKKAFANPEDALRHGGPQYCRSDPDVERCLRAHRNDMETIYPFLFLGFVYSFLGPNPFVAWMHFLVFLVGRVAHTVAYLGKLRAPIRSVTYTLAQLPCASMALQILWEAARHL
Description: Although the enzymatic assay is a high throughput assay the disadvantage is that it uses a recombinant protein which is not in its natural environment. Accordingly a cellular assay was established in which a cell line of human origin (A549) expressing the mPGES-1 protein was used. In addition in order to mimic the situation in humans in which compounds can be bound to plasma proteins 50% human serum is added in the assay. By having the combination of testing mPGES-1 in a cellular environment and the presence of 50% human serum this assay has a higher relevance to judge the therapeutic potential of a mPGES-inhibitor than the pure enzyme assay.
A549 cells (ATCC: CCL-185) are grown to about 90% confluence in F-12K Nutrient Mixture (Kaighn's Mod. Gibco) containing 10% FBS in a humified incubator at 37° C. and 5% CO2. Cells were detached using Trypsin-EDTA. A549 cells were seeded in a 384-well collagene plate at a density of 7000 cells/well (50 μl) in F-12 medium containing 1% Penicillin-Streptomycin and 50% human serum. The cells were allowed to attach for 3-4 h. After that the cells were incubated for 20-24 h in F-12k medium supplemented with 50% human serum, 1% Penicillin-Streptomycin and containing IL-1β at a final concentration of 5 ng/ml as well as 10 nM arachidonic acid in the presence of a vehicle or a test compound. The total volume is 100 μl.
Concentrations of PGE2 in the cell free medium (10 μl) were measured using a commercially available HTRF kit from Cisbio (as described above). The PGE2 formation in the absence of test compound was taken as 100%.
IC50 values were derived from at 6-8 point titrations using conventional software.

[2] = molecular target: T1, mPGES-1; assay: mPGES-1 enzyme assay (HTRF detection of PGE2); format: biochemical; set-up: made in house; host or cells: Rosetta E. coli (membrane/microsome fraction)
Description: Microsomes from Rosetta E. coli bacteria expressing recombinant human mPGES-1 can be derived as described below:
Inoculate 5 ml LB with Ampicilin (50 μg/ml) and Chloramphenicol (34 μg/ml) with bacteria from freeze culture. Incubate 8 h at 37° C. with 200 rpm. Thereafter, inoculate 500-1000 ml LB containing Amp and Chloro with the 5 ml on culture and grow to OD640 of 0.8-1.0. Chill the culture to +4° C. before induction. Induce the culture with IPTG at a final concentration of 400 μM. Express the protein at room temp 18-23° C. with 200 rpm shaking over night.
The following steps can be performed on the following day: • 1. Spin down the cells in 250 ml centrifuge flasks for 15 min at 7000 rpm (Beckmann Coulte Avanti J-E centrifuge) • 2. Dissolve the pellet from 250 ml culture in 12.5 ml homogenization buffer • 3. (15 mM Tris-HCL pH8, 1 mM EDTA pH8, […], 2.5 mM GSH, 1 Tablet Protease inhibitor per 50 ml buffer) • 4. Disintegrate the cells by sonication, 5×10 seconds at 48% amplitude of a 750 W sonifier • 5. Add 2.5 ml MgCl2 (100 mM) and DNase 12.5 μl (0.8 mg/ml) and incubate on ice for 30 min • 6. Spin down the bacteria debris and save the supernatant, 7000 rpm for 15 min • 7. Isolate the protein containing membranes in the supernatant by ultracentrifugation 120000×g for 2 hour at 4° C. (Sorvall T880 rotor). • 8. Discard the supernatant and dissolve the pellet in 20 mM Potassium phosphate buffer pH 7.4 (KH2PO4 and K2HPO4) buffer by sonication (5×10 s, 30% of a 50 W sonifier) and aliquot the enzyme and store aliquots at −80° C.
Before each experiment is performed an aliquot of the enzyme is thawed and it can then be dissolved in 0.1 M Potassium phosphate buffer pH7.4 (KH2PO4 and K2HPO4) buffer containing 2.5 mM GSH.
The aim of this assay is the determine the affinity of a test compound for the mPGES-1 enzyme.
47 μl of recombinant human mPGES-1 (˜0.5 μg protein/well) containing microsomal suspension in a buffer containing GSH, (2.5 mmol/L L-Glutathione reduced, dissolved in 0.1 mol/L Phosphat Buffer pH 7.4) is dispensed in a 384-well plate and thereafter 1 μl of the test compound(s) is/are added and incubated for 25 minutes at room temperature. The enzyme reaction is started by the addition of 2 μl PGH2 (final conc. 2 μM) dissolved in water-free Diglyme. After 60 seconds the reaction is terminated by addition of a stop solution containing FeCl2 (10 μL 0.074 mol/l FeCl2). The samples are diluted between 1:25 in PBS (Phosphate Buffered Saline). 10 μl of the diluted samples are transferred to 384-well low volume plate. In order to quantify the amount of PGE2 that has been formed, a homogenous time resolved fluorescent (HTRF) detecting of PGE2 has been performed using a commercially available kit from Cisbio according to the manufactures recommendation. This HTRF-based assay has been described in detail (see: Goedken et al., J Biomol Screen, 2008, 13(7), 619-625). Briefly, the diluted samples are mixed with 5 μl PGE2-d2 conjungate and 5 μl anti-PGE2 cryptate conjungate. After an incubation period of the plates over night, the fluorescence is measured by the use of an appropriate microplate reader.
The fluorescence of Europium cryptate (maxex=307 nm, maxem=620 nm) and d2-PGE2 (maxex=620 nm, maxem=665 nm) are measured.
The extent of the specific HTRF is measured as a ratio of the emission intensity at 665 nm vs. that at 620 nm at an excitation puls of 320 nm. The quantification plate contains also wells with different concentrations of PGE2 as calibration curve for the calculation of the PGE2 concentrations from the HTRF ratio values.
From all mPGES enzyme assay the background is subtracted and the IC50 is calculated over a nonlinear regression with conventional software.

[3] = A549 cells, IL-1β 5 ng/ml, 20-24 h, Table B, read-out: mPGES-1 inhibitory effect, IC50, cell assay
[4] = recombinant human mPGES-1 microsomes, PGH2 2 μM, Table A, read-out: mPGES-1 inhibitory effect, IC50, enzyme assay
[5] = Table C comparison of enzym and cell IC50, A549 cells, read-out: Cell IC50
[6] = Table C comparison of enzym and cell IC50, read-out: Enzym IC50

Structure (SMILES)	IC50 [1, 3] [nM]	IC50 [2, 4] [nM]	IC50 [1, 5] [nM]	IC50 [2, 6] [nM]
Cn1c(Nc2c(Cl)ccc(CNC(=O)C(C)(C)C)c2Cl)nc2cc(C(=O)NC3CC(F)(F)C3)c(N3CCC(C(F)(F)F)CC3)nc21 [Example 35]	16	5	–	–
CC(C)(C)C(=O)NCc1ccc(Cl)c(Nc2nc3cc(C(=O)N[C@H]4CC[C@H](C(F)(F)F)CC4)c(N4CCOCC4)nc3n2CC(F)F)c1Cl [Example 25]	7	4	–	–
Cn1c(Nc2c(Cl)ccc(CNC(=O)C(C)(C)C)c2Cl)nc2cc(C(=O)Nc3ccc(F)c(Cl)c3)c(N3CCC(C(F)(F)F)CC3)nc21 [Example 41]	2	1	–	–
Cn1c(Nc2c(Cl)ccc(CNC(=O)C(C)(C)C)c2Cl)nc2cc(C(=O)Nc3cccc(OC(F)(F)F)c3)c(N3CCC(C(F)(F)F)CC3)nc21 [Example 40]	13	3	–	–
CC(C)(C)C(=O)NCc1ccc(Cl)c(Nc2nc3cc(C(=O)N[C@H]4CC[C@H](C(F)(F)F)CC4)c(N4CCC(F)CC4)nc3[nH]2)c1Cl [Example 3, N-(trans-4-Trifluoromethyl-cyclohexyl)-2-{2,6-dichloro-3-[(2,2-dimethyl-propionylamino)-methyl]-phenylamino}-5-[4-fluoro-piperidinyl]-3H-imidazo[4,5-b]pyridine-6-carboxamide]	2	3	–	–
Cn1c(Nc2c(Cl)ccc(CNC(=O)C(C)(C)C)c2Cl)nc2cc(C(=O)Nc3ccc(OC(F)(F)F)cc3)c(N3CCC(C(F)(F)F)CC3)nc21 [Example 24, N-(4-Trifluoromethoxyphenyl)-2-{2,6-dichloro-3-[(2,2-dimethyl-propionylamino)-methyl]-phenylamino}-5-[4-trifluoromethyl-piperidinyl]-3-methyl-3H-imidazo[4,5-b]pyridine-6-carboxamide]	5	1	–	–
Cn1c(Nc2c(Cl)ccc(CNC(=O)C(C)(C)C)c2Cl)nc2cc(C(=O)NCC(F)(F)F)c(N3CCC(C(F)(F)F)CC3)nc21 [Example 32]	12	4	–	–
CC(C)(C)C(=O)NCc1ccc(Cl)c(Nc2nc3cc(C(=O)N[C@H]4CC[C@H](C(F)(F)F)CC4)c(N4CCC(F)(F)C4)nc3[nH]2)c1Cl [Example 9]	6	2	–	–
Cn1c(Nc2c(Cl)ccc(CNC(=O)C(C)(C)C)c2Cl)nc2cc(C(=O)Nc3cccc(C(F)(F)F)n3)c(N3CCC(C(F)(F)F)CC3)nc21 [Example 44]	56	4	–	–
Cn1c(Nc2c(Cl)ccc(CNC(=O)C(C)(C)C)c2Cl)nc2cc(C(=O)NC(Cc3ccccc3)C(F)(F)F)c(N3CCC(C(F)(F)F)CC3)nc21 (stereo not shown) [Example 39]	25	–	–	–
CN(CC(F)F)c1nc2c(cc1C(=O)N[C@H]1CC[C@H](C(F)(F)F)CC1)nc(Nc1cc(CNC(=O)C3(C(F)(F)F)CC3)ccc1Cl)n2C [Example 5]	58	9	–	–
COCCN(C)c1nc2c(cc1C(=O)N[C@H]1CC[C@H](C(F)(F)F)CC1)nc(Nc1cc(CNC(=O)C3(C(F)(F)F)CC3)ccc1Cl)n2C [Example 6]	–	9	–	–
CC(NC(=O)c1cc2nc(Nc3c(Cl)ccc(CNC(=O)C(C)(C)C)c3Cl)n(C)c2nc1N1CCC(C(F)(F)F)CC1)C(F)(F)F (stereo not shown) [Example 31]	20	3	–	–
CN(C)C(=O)Cn1c(Nc2c(Cl)ccc(CNC(=O)C(C)(C)C)c2Cl)nc2cc(C(=O)N[C@H]3CC[C@H](C(F)(F)F)CC3)c(N3CCC(C(F)(F)F)CC3)nc21 [Example 29]	39	10	–	–
Cn1c(Nc2c(F)cccc2Cl)nc2cc(C(=O)Nc3ccc(Br)cc3)c(OCC(F)F)nc21 [reference compound]	–	–	72	2
Cn1c(Nc2c(Cl)ccc(CNC(=O)C(C)(C)C)c2Cl)nc2cc(C(=O)N[C@H]3CC[C@H](C(F)(F)F)CC3)c(N(CC3CC3)C3CC3)nc21 [Example 23]	5	1	–	–
Cn1c(Nc2cc(CNC(=O)C(C)(C)C)ccc2Cl)nc2cc(C(=O)N[C@H]3CC[C@H](C(F)(F)F)CC3)c(OCC(F)(F)F)cc21 [reference compound]	–	–	89	8
Cn1c(Nc2c(Cl)ccc(CNC(=O)C(C)(C)C)c2Cl)nc2cc(C(=O)NC(c3ccccn3)C(F)(F)F)c(N3CCC(C(F)(F)F)CC3)nc21 (stereo not shown) [Example 42]	4	2	–	–
Cn1c(Nc2c(Cl)ccc(CNC(=O)C(C)(C)C)c2Cl)nc2cc(C(=O)NCc3ncccc3C(F)(F)F)c(N3CCC(C(F)(F)F)CC3)nc21 [Example 43]	6	5	–	–
Cn1c(Nc2cc(CNC(=O)C3(C(F)(F)F)CC3)ccc2Cl)nc2cc(C(=O)Nc3ccc(F)c(Cl)c3)c(OCC(F)F)cc21 [reference compound]	–	–	8	1
CC(C)(C)C(=O)NCc1ccc(Cl)c(Nc2nc3cc(C(=O)N[C@H]4CC[C@H](C(F)(F)F)CC4)c(N4CC[C@H](F)C4)nc3[nH]2)c1Cl [Example 8]	11	2	–	–
CC(C)(C)OC(=O)NCc1cc(F)c(Cl)c(Nc2nc3cc(C(=O)N[C@H]4CC[C@H](C(F)(F)F)CC4)c(N4CCC(F)CC4)nc3[nH]2)c1Cl [Example 14, N-(trans-4-Trifluoromethyl-cyclohexyl)-2-{2,6-dichloro-5-fluoro-3-[(tert.butoxycarbonylamino)-methyl]-phenylamino}-5-[4-fluoro-piperidinyl]-3H-imidazo[4,5-b]pyridine-6-carboxamide]	86	35	–	–
Cn1c(Nc2c(Cl)ccc(CNC(=O)C(C)(C)C)c2Cl)nc2cc(C(=O)NCCCC(F)(F)F)c(N3CCC(C(F)(F)F)CC3)nc21 [Example 33]	8	2	–	–
Cn1c(Nc2c(Cl)ccc(CNC(=O)C(C)(C)C)c2Cl)nc2cc(C(=O)NC3(c4ccc(F)cc4)CC3)c(N3CCC(C(F)(F)F)CC3)nc21 [Example 37]	8	3	–	–
